We go through four compounds from patent US7122683B2, “Amides useful as monoamine re-uptake inhibitors” (Pfizer Inc., priority 2004, dated 2006).

Molecules are shown by their SMILES. Where a name gives a salt, the structure may show the parent alone.

Assay [1] has as its target T1, human serotonin transporter (hSERT) (Homo sapiens, UniProt P31645).
T1 construct: expressed in transfected cells; host or cells: HEK-293
Briefly: SPA radioligand binding at human serotonin transporter (3H-citalopram). The following applies: hSERT membranes from HEK-293 cells, Ki from IC50 by Cheng-Prusoff, geometric mean, read-out: SRI Ki. The method, then:
(§1) The compounds were tested for biological activity by their ability to inhibit binding of selective radioligands at the human serotonin and noradrenaline transporters (SERT and NET, respectively), using scintillation proximity assay (SPA) technology. The SPA binding was performed using cellular membrane preparations prepared from cell lines expressing human cDNA encoding either SERT or NET (hSERT, hNET), using the radioligands ^3H-citalopram and ^3H-nisoxetine.
(§2) Human embryonic kidney cells (HEK-293) expressing each transporter were maintained as a continuous culture, using standard cell culture techniques, in 50 mL of growth medium (see Media and Buffers for composition) in 225 cm^2 flasks, at 37° C. in a humidified atmosphere with 5% CO2 present. Cells were passaged from a 90% confluent monolayer at a ratio of 1:3–1:4.
(§3) For cell harvesting, the growth medium was removed from the monolayer and the cells were incubated with cell dissociation solution (Sigma) until showing signs of dissociation. The cells were subsequently knocked from the base of the flask and pelleted by centrifugation for storage (frozen at −80° C.) prior to further use.
(§4) Cell pellets were thawed on ice and resuspended in 3 mL of membrane preparation buffer (see Media and Buffers for composition) per 1 mL of packed cell volume, using a vortex mixer to disperse the cell pellet. After incubation on ice for 10 minutes, the suspension was homogenised for four individual 10 second intervals using a hand-held homogeniser. The homogenate was then centrifuged at 1075×g for 20 minutes at 4° C.
(§5) The supernatants were then collected and retained. […]
(§6) The pooled supernatants were centrifuged at 35000×g for 30 minutes at 4° C., and the supernatants discarded. […] Protein concentrations were then measured and the membrane suspension was finally frozen in aliquots of set volume and stored at −80° C. prior to use in assays.
(§7) The specific SPA bead type differed for each transporter, wheat germ agglutinin-coated yttrium silicate (YSi WGA) SPA beads were used for hSERT and WGA-coated polyvinyltoluene (PVT WGA) SPA beads for hNET assays. For each batch of membrane used, optimal concentrations of bead and membrane were determined
(§8) Tritiated radioligands specific to each transporter (^3H-citalopram for hSERT and ^3H-nisoxetine for hNET) were used. The assay free radioligand concentration was expressed as a percentage of the total free radioligand concentration to give an estimate of the radioligand depletion. […]
(§9) The affinity of the specific radioligand for the respective transporter was determined for each membrane batch at the selected protein and bead concentrations. […]
(§10) The mean KD for a radioligand at a batch of membranes was determined from data from a minimum of three separate assays. […]

Assay [2] deals with T2, human noradrenaline transporter (hNET) (Homo sapiens, UniProt P23975).
T2 construct: expressed in transfected cells; host or cells: HEK-293
Briefly: SPA radioligand binding at human noradrenaline transporter (3H-nisoxetine). The following applies: hNET membranes from HEK-293 cells, Ki from IC50 by Cheng-Prusoff, geometric mean, read-out: NRI Ki. Here is the method:
as §1, §2, §3, §4, §5, §6, §7, §8, §9, §10

T2 sequence (P23975 whole entry): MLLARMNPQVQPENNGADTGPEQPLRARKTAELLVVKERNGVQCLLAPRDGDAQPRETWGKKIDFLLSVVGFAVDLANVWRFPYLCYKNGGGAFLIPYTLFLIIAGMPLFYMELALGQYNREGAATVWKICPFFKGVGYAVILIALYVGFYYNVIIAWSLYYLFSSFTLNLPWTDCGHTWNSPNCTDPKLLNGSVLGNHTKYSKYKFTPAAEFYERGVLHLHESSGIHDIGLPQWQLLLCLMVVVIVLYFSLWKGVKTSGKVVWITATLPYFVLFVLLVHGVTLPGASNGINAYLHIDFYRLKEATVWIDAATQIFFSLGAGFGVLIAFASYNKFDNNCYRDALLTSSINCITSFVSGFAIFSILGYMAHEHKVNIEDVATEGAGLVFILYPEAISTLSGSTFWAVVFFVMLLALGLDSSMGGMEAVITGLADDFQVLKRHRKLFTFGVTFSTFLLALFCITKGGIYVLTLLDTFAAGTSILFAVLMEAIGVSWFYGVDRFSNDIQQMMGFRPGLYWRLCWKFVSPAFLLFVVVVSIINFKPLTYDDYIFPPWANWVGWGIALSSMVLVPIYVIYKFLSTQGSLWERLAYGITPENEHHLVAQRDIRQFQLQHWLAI
T1 sequence (P31645 whole entry): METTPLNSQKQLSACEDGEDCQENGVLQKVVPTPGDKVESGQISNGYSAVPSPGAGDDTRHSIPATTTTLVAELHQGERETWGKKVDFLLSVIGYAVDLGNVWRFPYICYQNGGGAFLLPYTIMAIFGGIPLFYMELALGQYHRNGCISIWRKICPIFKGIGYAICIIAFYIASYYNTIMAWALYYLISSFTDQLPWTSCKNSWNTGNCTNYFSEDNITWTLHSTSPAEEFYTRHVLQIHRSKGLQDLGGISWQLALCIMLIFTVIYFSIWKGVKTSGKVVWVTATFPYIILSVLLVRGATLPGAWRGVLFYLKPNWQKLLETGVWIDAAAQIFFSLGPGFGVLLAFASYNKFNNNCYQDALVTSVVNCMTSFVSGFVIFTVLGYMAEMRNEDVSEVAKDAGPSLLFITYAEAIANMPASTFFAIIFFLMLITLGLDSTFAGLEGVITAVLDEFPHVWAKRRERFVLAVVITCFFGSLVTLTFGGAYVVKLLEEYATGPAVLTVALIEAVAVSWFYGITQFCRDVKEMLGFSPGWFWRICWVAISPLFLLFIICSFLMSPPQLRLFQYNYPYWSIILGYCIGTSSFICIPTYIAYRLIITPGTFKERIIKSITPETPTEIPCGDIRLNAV

As usually defined, the Ki is a measure of affinity in units of concentration, obtained from inhibition or displacement. With `O=C(c1cccc(Cl)c1Cl)N(C1CCCC1)[C@H]1CCNC1` [Example 1, 2,3-dichloro-N-cyclopentyl-N-[(3S)pyrrolidin-3-yl]benzamide hemi-edisylate], the Ki in assay [1] worked out at 5 nM; in assay [2], 15 nM.

Turning to `O=C(c1cccc(Cl)c1Cl)N(C1CCCCC1)[C@H]1CCNC1` [Example 6, 2,3-dichloro-N-cyclohexyl-N-[(3S)-pyrrolidin-3-yl]benzamide hydrochloride], the Ki in assay [1] turned out to be 9 nM; in assay [2], 11 nM.

On to `O=C(c1ccccc1Cl)N(C1CCCCC1)[C@H]1CCNC1` [Example 14, 2-chloro-N-cyclohexyl-N-[(3S)pyrrolidin-3-yl]benzamide], for which the Ki came out at 11 nM in assay [1] and 9 nM in assay [2].

For `Cc1c(Cl)cccc1C(=O)N(CC1(C)CC1)[C@H]1CCNC1` [Example 20, 3-chloro-2-methyl-N-[(1-methylcyclopropyl)methyl]-N-[(3S)pyrrolidin-3-yl]benzamide hydrochloride], the figures for the Ki in assay [1] and in assay [2] were 3 nM and 14 nM, respectively.
